Anticonvulsant activity, ED50 and melting point data for two compounds are collected here from US20120071471A1, “NOVEL BENZOXAZINONE DERIVATIVES USEFUL FOR THE TREATMENT OF CNS DISORDERS” (NEUROSEARCH A/S, priority 2009, published 2012).

For series [1] the following is noted: De Marchi et al., Journal of Pharmaceutical Sciences 1971 60 (11); cited from earlier work.
For series [2], the system named is female NMRI mice. Kind of series: 6 Hz corneal stimulation psychomotor seizure model (anticonvulsant properties). It is filed as in vivo. Conditions: Mus musculus, 32 mA, 3 s corneal stimulation, N=8/group, read-out: ED50 (dose that would give a 50% protection from seizures). How it is done:
The evaluation of the anticonvulsant properties was carried out in female NMRI mice (20-25 g, Taconic, Denmark). The mice were housed in groups (8 per cage according to weight) with food and water available ad libitum The environment was temperature (20±2° C.) and humidity (55±15%) controlled, and consisted of a 12:12 h light-dark cycle (lights on 06:00 h). The experiments were performed according to the Danish Committee for Experiments on Animals. Psychomotor seizures were induced via corneal stimulation (6 Hz, 0.2 ms rectangular pulses at 32 mA for 3 s) using a Grass S48 stimulator, constant current unit (CCU1) and isolation unit (SIU5), all driven by a stimulus generator (Master-8, AMPI, Israel).
The pads of the corneal stimulator were soaked in 0.9% saline. The mice were restrained during corneal stimulation and released immediately after and observed for the presence or absence of seizure activity.
The duration of any of these seizure variables is 10-75 seconds. In the presence of any of the seizure variables the mice was labelled 0% protection, and if none of the above, the mice was labelled 100% protection.
For screening purposes, the test compound was tested at 1 dose at 1 time-point. In the case of protection of 3 or more out of 8 mice, the compound were further evaluated in dose response (N=8/group). […]

The ED50 is the midpoint of the dose-response relation. For orientation: melting point means the temperature, or range, at which the solid turns liquid.

For the compound `NC(=O)CN1C(=O)OCc2ccccc21` [2-(2-oxo-4H-benzo[d][1,3]oxazin-1-yl)-acetamide], the anticonvulsant activity entry in series [1] is “biologically inactive”.
On to `NC(=O)CN1C(=O)OCc2cc(Br)ccc21` [Compound 1, 2-(6-bromo-2-oxo-4H-3,1-benzoxazin-1-yl)acetamide], for which the melting point was 253.4 to 254.3 °C. In series [2], the ED50 amounted to 13 mg/kg.
